Results from the NIST ThermoML archive (doi:10.1021/je040008e).

How the values were obtained:
[1] = 101.33 kPa, Liquid; for speed of sound: Linear variable-path acoustic interferometer
[2] = xn = mol fraction of the nth substance listed; settings: 308.15 K, 101.33 kPa, Liquid; for speed of sound: Linear variable-path acoustic interferometer

CC(=O)c1ccc(Cl)cc1 [4'-chloroacetophenone]
[1]
Settings	mass density [kg/m3]	speed of sound [m/s]
298.15 K	1188.9	–
308.15 K	–	1390

CC(=O)c1ccc(Cl)cc1 [4'-chloroacetophenone] + CNC(C)=O
[2]
Settings	excess molar volume [m3/mol]	speed of sound [m/s]
x1 = 0.0644	-2.11e-07	1363
x1 = 0.1311	-3.3e-07	1366
x1 = 0.2036	-4.53e-07	1369.3
x1 = 0.2825	-5.363e-07	1372.4
x1 = 0.3696	-5.889e-07	1375.8
x1 = 0.4664	-5.934e-07	1379.5
x1 = 0.5774	-5.393e-07	1382.6
x1 = 0.7003	-4.298e-07	1385.1
x1 = 0.8405	-2.52e-07	1387.6
x1 = 1	0	1390

CC(=O)c1ccc(C)cc1 [4'-methylacetophenone]
[1], 308.15 K
Settings	mass density [kg/m3]	speed of sound [m/s]
–	996.3	1437.9

CC(=O)c1ccc(C)cc1 [4'-methylacetophenone] + CNC(C)=O
[2]
Settings	excess molar volume [m3/mol]	speed of sound [m/s]
x1 = 0.0617	-1.519e-07	1368.9
x1 = 0.1321	-2.517e-07	1377.7
x1 = 0.2004	-3.355e-07	1385.8
x1 = 0.2836	-3.41e-07	1394.4
x1 = 0.3629	-3.52e-07	1402.4
x1 = 0.4632	-3.458e-07	1411.5
x1 = 0.5582	-3.114e-07	1418.4
x1 = 0.689	-2.508e-07	1426.9
x1 = 0.8305	-1.92e-07	1434
x1 = 1	0	1437.9

CNC(C)=O [N-methylacetamide]
[1], 308.15 K
Settings	mass density [kg/m3]	speed of sound [m/s]
–	949.7	1360

CNC(C)=O [N-methylacetamide] + CC(=O)c1ccc(C)cc1
[2], x2 = 0
Settings	excess molar volume [m3/mol]	speed of sound [m/s]
–	0	1360

CNC(C)=O [N-methylacetamide] + CC(=O)c1ccc(Cl)cc1
[2], x2 = 0
Settings	excess molar volume [m3/mol]	speed of sound [m/s]
–	0	1360

CNC(C)=O [N-methylacetamide] + CC(=O)c1ccccc1
[2]
Settings	excess molar volume [m3/mol]	speed of sound [m/s]
x2 = 0	0	1360
x2 = 0.0686	-1.018e-07	1368.7
x2 = 0.138	-1.732e-07	1376.6
x2 = 0.2189	-2.437e-07	1386.8
x2 = 0.3143	-2.579e-07	1398
x2 = 0.3938	-2.476e-07	1406.1
x2 = 0.4912	-2.365e-07	1415.3
x2 = 0.6042	-1.695e-07	1424.2
x2 = 0.7223	-1.212e-07	1431.4
x2 = 0.8517	-5.09e-08	1438

CNC(C)=O [N-methylacetamide] + CCC(=O)c1ccccc1
[2], x2 = 0
Settings	excess molar volume [m3/mol]	speed of sound [m/s]
–	0	1360

CC(=O)c1ccccc1 [acetophenone]
[1]
Settings	mass density [kg/m3]	speed of sound [m/s]
298.15 K	1023.1	–
308.15 K	–	1445

CC(=O)c1ccccc1 [acetophenone] + CNC(C)=O
[2], x1 = 1
Settings	excess molar volume [m3/mol]	speed of sound [m/s]
–	0	1445

CCC(=O)c1ccccc1 [ethyl phenyl ketone]
[1]
Settings	mass density [kg/m3]	speed of sound [m/s]
298.15 K	1009.2	–
308.15 K	–	1432.1

CCC(=O)c1ccccc1 [ethyl phenyl ketone] + CNC(C)=O
[2]
Settings	excess molar volume [m3/mol]	speed of sound [m/s]
x1 = 0.06	-2.003e-07	1368.3
x1 = 0.1269	-3.185e-07	1374.7
x1 = 0.1862	-3.356e-07	1380.6
x1 = 0.2778	-2.912e-07	1388.9
x1 = 0.3654	-2.106e-07	1397.8
x1 = 0.4649	-1.397e-07	1406.6
x1 = 0.5709	-8.14e-08	1413.5
x1 = 0.6929	-1.92e-08	1419.6
x1 = 0.8315	3.82e-08	1426.6
x1 = 1	0	1432.1
